Assay results taken from the supplement of paper PMC10307832.

The cell lines below were run with O=C1NC(=O)[C@@H](c2cn3c4c(cccc24)CCC3)[C@@H]1c1c[nH]c2ccccc12 [Tivantinib] + C[C@@H](Oc1cc(-c2cnn(C3CCNCC3)c2)cnc1N)c1c(Cl)ccc(F)c1Cl [Crizotinib] (partner 1 µM) (assay: relative viability (nuclei count vs DMSO), 5 days (fraction); higher = more cells survive). Details: first compound 0.01 µM.
Procedure, shortened: (§1)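 Five library-drug doses in √10 steps were combined with a fixed anchor-drug dose, or a single drug was given alone, by pin tool to lung cancer cell lines in 1536-well plates the day after seeding. Nuclei were stained and counted after 5 days. Relative viability is the nuclei count in treated wells over that in vehicle wells, taken as the median of duplicate plates.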

Cell Line	relative viability
LXF-289	0.792
BEN	0.897
HCC-15	0.722
HCC-827	0.92
NCI-H441	0.847
LOU-NH91	0.746
NCI-H2023	0.602
A-427	0.893
NCI-H460	0.878
NCI-H727	0.764
NCI-H1755	0.892
NCI-H520	0.797
NCI-H2405	0.892
SW 1573	0.751
201T	1.01
NCI-H1975	0.938
HOP-62	0.828

Cell Line	relative viability
NCI-H2347	0.756
NCI-H1355	1.15
NCI-H650	0.728
NCI-H1666	0.955
H3255	0.905
NCI-H23	0.511
NCI-H1915	0.868
NCI-H1437	0.875
NCI-H322M	0.823
NCI-H1792	1.02
NCI-H2085	0.909
HCC-366	0.641
PC-3 [JPC-3]	1.03
EKVX	0.944
LCLC-103H	0.996
NCI-H1650	1.07
NCI-H1993	0.931

Same assay, conditions: first compound 0.03162 µM

Cell Line	relative viability
LXF-289	0.819
BEN	0.72
HCC-15	0.791
HCC-827	1.01
NCI-H441	0.725
LOU-NH91	0.729
NCI-H2023	0.762
A-427	1.02
NCI-H460	0.884
NCI-H727	0.96
NCI-H1755	0.878
NCI-H520	0.764
NCI-H2405	0.879
SW 1573	0.761
201T	1.01
NCI-H1975	0.929

Cell Line	relative viability
NCI-H2347	0.564
NCI-H1355	1.1
NCI-H1666	1.03
H3255	0.922
NCI-H23	0.615
NCI-H1915	0.888
NCI-H1437	1.07
NCI-H322M	0.94
NCI-H1792	0.948
NCI-H2085	0.76
HCC-366	0.559
PC-3 [JPC-3]	1.05
EKVX	0.965
LCLC-103H	1.04
NCI-H1650	0.903
NCI-H1993	0.929

Same assay, conditions: first compound 0.1 µM

Cell Line	relative viability
LXF-289	0.777
BEN	0.672
HCC-15	0.731
HCC-827	0.91
NCI-H441	0.546
LOU-NH91	0.705
NCI-H2023	0.673
A-427	0.821
NCI-H460	0.848
NCI-H727	0.88
NCI-H1755	0.793
NCI-H520	0.758
NCI-H2405	0.821
SW 1573	0.902
201T	1.04
NCI-H1975	0.924
HOP-62	0.972

Cell Line	relative viability
NCI-H2347	0.74
NCI-H1355	1.01
NCI-H650	0.629
NCI-H1666	0.993
H3255	0.763
NCI-H23	0.512
NCI-H1915	0.852
NCI-H1437	0.977
NCI-H322M	0.901
NCI-H1792	0.828
NCI-H2085	0.75
HCC-366	0.43
PC-3 [JPC-3]	0.996
EKVX	0.712
LCLC-103H	1.05
NCI-H1650	1.04
NCI-H1993	0.899

Same assay, conditions: first compound 0.3162 µM

Cell Line	relative viability
LXF-289	0.827
BEN	0.681
HCC-15	0.853
HCC-827	0.779
NCI-H441	0.801
LOU-NH91	0.53
NCI-H2023	0.639
A-427	0.859
NCI-H460	0.217
NCI-H1755	0.92
NCI-H520	1.05
NCI-H2405	0.821
SW 1573	0.496
201T	1.02
NCI-H1975	1.05
HOP-62	1.03

Cell Line	relative viability
NCI-H2347	0.674
NCI-H1355	0.806
NCI-H650	0.557
NCI-H1666	0.992
NCI-H23	0.416
NCI-H1915	0.91
NCI-H1437	0.91
NCI-H322M	1.02
NCI-H1792	0.932
NCI-H2085	0.756
HCC-366	0.672
PC-3 [JPC-3]	0.759
EKVX	0.242
LCLC-103H	0.941
NCI-H1650	0.984
NCI-H1993	0.765

What follows are cell lines tested with CC1(COc2ccc3c(c2)ncn3-c2ccc3cccc(N4CCC(N)CC4)c3n2)COC1 [Crenolanib] + CC(=O)Nc1cccc(-n2c(=O)n(C3CC3)c(=O)c3c(Nc4ccc(I)cc4F)n(C)c(=O)c(C)c32)c1 [Trametinib] (partner 0.02 µM) in the same assay as above. Details: first compound 0.01 µM.
Procedure, shortened: as §1

Cell Line	relative viability
LXF-289	0.665
BEN	1.14
HCC-15	0.4
HCC-827	0.595
NCI-H441	0.537
LOU-NH91	0.826
NCI-H2023	0.549
A-427	0.831
NCI-H460	0.13
NCI-H727	0.437
NCI-H1755	0.754
NCI-H520	0.818
NCI-H2405	0.698
SW 1573	0.661
201T	0.703
NCI-H1975	0.344
HOP-62	0.43
NCI-H2347	0.283
NCI-H1355	0.488
NCI-H650	1.01
NCI-H1666	0.887
H3255	0.646
NCI-H23	0.441
NCI-H1915	0.29
NCI-H1437	0.677
NCI-H322M	0.515
